These results are taken from ChEMBL document CHEMBL3526042, “Mechanism-based inactivation of cytochrome P450 2B6 by methadone through destruction of prosthetic heme” (Drug Metab Dispos, 2012).

Holding throughout (format): ADME
One series has as its target T1, CYP2B6 (Homo sapiens, UniProt P20813).
T1 sequence (P20813 whole entry): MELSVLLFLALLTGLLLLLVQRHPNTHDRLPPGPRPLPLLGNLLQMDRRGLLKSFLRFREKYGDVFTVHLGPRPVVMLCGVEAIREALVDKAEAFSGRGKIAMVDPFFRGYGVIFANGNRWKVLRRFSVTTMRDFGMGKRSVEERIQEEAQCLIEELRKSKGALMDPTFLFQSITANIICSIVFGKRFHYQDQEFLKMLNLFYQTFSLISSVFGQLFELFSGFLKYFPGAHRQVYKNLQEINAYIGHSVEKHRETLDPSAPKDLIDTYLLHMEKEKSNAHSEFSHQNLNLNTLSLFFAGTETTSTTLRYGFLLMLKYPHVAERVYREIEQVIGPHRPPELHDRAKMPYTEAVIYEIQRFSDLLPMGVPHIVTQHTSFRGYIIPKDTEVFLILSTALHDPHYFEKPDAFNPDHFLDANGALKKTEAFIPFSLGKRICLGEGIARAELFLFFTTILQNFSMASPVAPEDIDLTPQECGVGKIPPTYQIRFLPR
The experiment in a line: Inactivation of C-terminal His4-tagged human CYP2B6 lacking 21 N-terminal residues assessed as decrease in enzyme catalytic activity at 100 uM for 15 mins by spectral analysis in presence of NADPH.

The target of series [1] is T2, Cytochrome P450 2B6 (Homo sapiens, UniProt P20813).
T2 sequence (P20813 whole entry): T1 sequence (P20813 whole entry)
As to the kind of experiment: Irreversible inactivation of C-terminal His4-tagged human CYP2B6 lacking 21 N-terminal residues assessed as decrease in enzyme catalytic activity measured after overnight dialysis at 100 uM for 15 mins by spectral analysis in presence of NADPH. The conditions noted are these: 0.25 h.

The target in series [2] is T2, Cytochrome P450 2B6. The experiment in a line: Inactivation of C-terminal His4-tagged human CYP2B6 lacking 21 N-terminal residues expressed in Escherichia coli C41 (DE3) assessed as decreases in fluorescence intensity of 7-hydroxy-4-trifluoromethylcoumarin up to 30 mins at 37 degC. The conditions noted are these: 0.5 h.
Series [3] addresses T2, Cytochrome P450 2B6. The experiment in a line: Inactivation of C-terminal His4-tagged human CYP2B6 lacking 21 N-terminal residues expressed in Escherichia coli C41 (DE3) assessed as decreases in fluorescence intensity of 7-hydroxy-4-trifluoromethylcoumarin at 5 to 100 uM at 37 degC. The conditions noted are these: TDE = time-dependent effect.
The target in series [4] is T2, Cytochrome P450 2B6. The experiment in a line: Irreversible inactivation of C-terminal His4-tagged human CYP2B6 lacking 21 N-terminal residues assessed as decrease in CO difference spectrum measured after overnight dialysis at 100 uM for 15 mins by spectral analysis in presence of NADPH. The conditions noted are these: 0.25 h.

With `CCC(=O)C(CC(C)N(C)C)(c1ccccc1)c1ccccc1` (racemic) [METHADONE], the inhibition at 0.25 h, 100 µM at CYP2B6 is 58%. The “inhibition (INH)” value at Cytochrome P450 2B6 [1] is reported as “Active”; at Cytochrome P450 2B6 [2] it was “Dose-dependent effect”; on Cytochrome P450 2B6 [3], “tde”; at Cytochrome P450 2B6 [4], “Active”.
